One series concerns suckers on tobacco plant. As to the kind of experiment: Use of pelargonic acid for inhibiting the growth of suckers (Example 1, FIG. 1). It counts as in vivo, tobacco plant of the Burley variety. Conditions: Burley tobacco; pelargonic acid applied at 0.5 g/l to 50.0 g/l; FIG. 1B. An excerpt: To better exemplify reference is made to FIGS. 1A and 1B, which show a tobacco plant (100) of the Burley variety. […] It can be observed that at full floral development (i.e. ˜3 to 4 months) suckers (150) started to proliferate and grew into auxiliary stems.

Series [1] concerns suckers on tobacco plants. As to the kind of experiment: Treatment of tobacco plants with pelargonic acid: sucker growth inhibition (Example 3). In kind it is in vivo, tobacco plants of the Burley and Virginia. Conditions: PA 3.4, 5.1, 6.8 g/l; V 450-460 l/ha; interval of 7 days between treatments; across all plants. The procedure: (§1) In an experimental embodiment tobacco plants of the Burley and Virginia were treated with a Volume (V) of 450-460l/ha with a composition comprising pelargonic acid (PA) at different concentrations (e.g., 3.4 g/l, 5.1 g/l and 6.8 g/l) with an interval of 7 days between treatments; the exact experimental details can be found in Table 1.

The test system of the next series is tobacco plants. As to the kind of experiment: Treatment of tobacco plants with pelargonic acid: phytotoxicity (Example 3). To be noted: PA 3.4, 5.1, 6.8 g/l; V 450-460 l/ha; interval of 7 days between treatments. It counts as in vivo, tobacco plants of the Burley and Virginia. How it is done: as §1

For the compound `CCCCCCCCC(=O)O` [pelargonic acid], the sucker growth entry in the series with suckers on tobacco plant is given as “fully inhibited”. Besides, the sucker growth inhibition in series [1] is on record as > 90%. Also, the “phytotoxicity or adverse ecological effects” value in the series on tobacco plants is “no phytotoxicity or adverse ecological effects were observed”.
